pIC50: −log10 of the molar value. Read-outs that look alike come from different tables or passages of the source.
Tests used:
D. melanogaster eIF4A wt = molecular target: T1, D. melanogaster eIF4A wt (Drosophila melanogaster, UniProt Q02748); format: binding; settings: S3 Table
T1 construct: made in house; host or cells: E. coli BL21 (DE3)

[1] = molecular target: T2, D. melanogaster eIF4A mutant Y160L (Drosophila melanogaster, UniProt Q02748, Y160L); format: binding; settings: S3 Table, D. melanogaster mut.
T2 construct: made in house; host or cells: E. coli BL21 (DE3)
T2 sequence (Q02748 whole entry Y160L): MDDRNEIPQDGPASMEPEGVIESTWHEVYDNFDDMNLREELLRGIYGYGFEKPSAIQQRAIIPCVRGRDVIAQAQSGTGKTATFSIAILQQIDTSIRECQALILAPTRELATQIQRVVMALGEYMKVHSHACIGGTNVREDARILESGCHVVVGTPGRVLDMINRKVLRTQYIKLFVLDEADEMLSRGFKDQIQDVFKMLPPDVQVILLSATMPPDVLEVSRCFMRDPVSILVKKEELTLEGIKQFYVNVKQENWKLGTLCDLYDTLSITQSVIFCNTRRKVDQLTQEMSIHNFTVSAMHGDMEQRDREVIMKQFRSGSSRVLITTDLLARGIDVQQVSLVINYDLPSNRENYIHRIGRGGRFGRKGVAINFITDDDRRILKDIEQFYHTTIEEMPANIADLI

[2] = tested on: Ae. aegypti eIF4A mutant H161L; settings: for reduction in thermal shift with the mutant compared to the wt protein: Ae. aegypti eIF4A, (GA)5 10mer; for ∆Tm: S3 Table, Ae. aegypti mut.
[3] = tested on: A. suspensa eIF4A mutant Y160L; settings: S3 Table, A. suspensa mut.
RVFV MP-12 = format: cell-based, Rift Valley fever virus; settings: A549 cells pretreated with 50 nM silvestrol, MOI 0.1, 18 h post-infection, relative to DMSO controls
RVFV Clone 13 = format: cell-based, Rift Valley fever virus; settings: A549 cells pretreated with 50 nM silvestrol, MOI 0.1, 18 h post-infection, relative to DMSO controls
[4] = tested on: eIF4A-dependent firefly luciferase translation in S2 cells; format: cell-based, D. melanogaster; settings: t = 24 h
[5] = tested on: eIF4A-dependent firefly luciferase translation in Aag2 cells; format: cell-based, Ae. aegypti; settings: t = 48 h
A549 cells = settings: 50–100 nM, WST-1
Aag2 cells = test: cells; settings: Aedes aegypti, read-out: IC50 (best-fit value, 4PL dose-viability curve)
S2 cells = test: cells; settings: Drosophila melanogaster, read-out: IC50 (best-fit value, 4PL dose-viability curve)
in vitro [6] = settings: Aedes aegypti, CC50, Aag2 cells, WST-1
in vitro [7] = settings: Drosophila melanogaster, CC50, S2 cells, WST-1
[8] = silvestrol in the sub-CC50 range, vs DMSO and (AC)15 control

T1 sequence (Q02748 whole entry): as the sequence (Q02748 whole entry Y160L) above, with L160Y counted along it

| SMILES | ∆Tm (D. melanogaster eIF4A wt; RNA oligo (AC)5) [°C] | ∆Tm (D. melanogaster eIF4A wt; RNA oligo (AG)5) [°C] | ∆Tm (D. melanogaster eIF4A wt; RNA oligo (GA)5) [°C] | ∆Tm (D. melanogaster eIF4A wt; RNA oligo (UA)5) [°C] | ∆Tm (D. melanogaster eIF4A wt; RNA oligo (UC)5) [°C] | ∆Tm (D. melanogaster eIF4A wt; RNA oligo (UG)5) [°C] | ∆Tm ([1]; RNA oligo (AC)5) [°C] | ∆Tm ([1]; RNA oligo (AG)5) [°C] | ∆Tm ([1]; RNA oligo (GA)5) [°C] | ∆Tm ([1]; RNA oligo (UC)5) [°C] | ∆Tm ([1]; RNA oligo (UG)5) [°C] | reduction in thermal shift with the mutant compared to the wt protein [2] | ∆Tm ([2]; RNA oligo (AC)5) [°C] | ∆Tm ([2]; RNA oligo (AG)5) [°C] | ∆Tm ([2]; RNA oligo (GA)5) [°C] | ∆Tm ([2]; RNA oligo (UA)5) [°C] | ∆Tm ([2]; RNA oligo (UC)5) [°C] | ∆Tm ([2]; RNA oligo (UG)5) [°C] | ∆Tm ([3]; RNA oligo (AC)5) [°C] | ∆Tm ([3]; RNA oligo (GA)5) [°C] | other results |
| --- | --- | --- | --- | --- | --- | --- | --- | --- | --- | --- | --- | --- | --- | --- | --- | --- | --- | --- | --- | --- | --- |
| CONC(=O)C1C(O)C2(O)c3c(OC)cc(OC)cc3OC2(c2ccc(OC)cc2)C1c1ccccc1 (stereo not drawn) [CR-31-B (-)] | -0.43 | 6.55 | 5.81 | -0.71 | -1.11 | 5.59 | -4.66 | 0.74 | 1.88 | -4.09 | -2.27 | ~3 °C | -4.82 | 7.50 | 3.74 | -4.65 | -5.44 | -0.09 | -4.03 | 2.81 | ∆Tm ([1]; RNA oligo (UA)5): -4.43 °C; ∆Tm ([3]; RNA oligo (UA)5): -4.53 °C; ∆Tm ([3]; RNA oligo (UC)5): -4.59 °C; ∆Tm ([3]; RNA oligo (UG)5): -2.82 °C |
| COC(=O)[C@H]1[C@@H](O)[C@@]2(O)c3c(OC)cc(O[C@@H]4O[C@@H]([C@H](O)CO)CO[C@H]4OC)cc3O[C@@]2(c2ccc(OC)cc2)[C@@H]1c1ccccc1 [silvestrol] | 1.02 | 9.55 | 9.16 | -0.09 | -0.09 | 7.31 | -1.65 | 1.76 | 2.90 | -3.87 | -2.05 | about 5 °C | -5.7 | 7.84 | 3.91 | -5.16 | -5.73 | -0.68 | -4.10 | 3.53 | RVFV L-segment RNA levels (RVFV MP-12): strong reduction; RVFV L-segment RNA levels (RVFV Clone 13): strong reduction; translation efficiency with the (AC)15 control ([4]; silvestrol concentrations in the CC50 range): reduction of translation efficiency; firefly luciferase activity / translation efficiency with the (AG)15 plasmid [4, 8]: strong reduction; translation efficiency with the (AC)15 control [5]: already visible at the half CC50 concentration; firefly luciferase activity / translation efficiency with the (AG)15 plasmid [5, 8]: strong reduction; cytotoxicity (A549 cells): No cytotoxicity; pIC50 (Aag2 cells; 24 h): 7.44; pIC50 (Aag2 cells; 48 h): 7.34; pIC50 (S2 cells; 24 h): 8.20; pIC50 (S2 cells; 48 h): 8.21; CC50 (in vitro [6]; 24 h incubation): 55.6 nM; CC50 (in vitro [6]; 48 h incubation): 49 nM; CC50 (in vitro [7]; 24 h incubation): 11.5 nM; CC50 (in vitro [7]; 48 h incubation): 7.3 nM; ∆Tm ([3]; RNA oligo (UA)5): -4.50 °C; ∆Tm ([3]; RNA oligo (UC)5): -4.15 °C; ∆Tm ([3]; RNA oligo (UG)5): -3.02 °C |

Reference: PMC13052863 (PLOS One, 2026)
